This note sets out measurements from ChEMBL document CHEMBL1201862, “PubChem BioAssay data set” (2004).

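Test compounds were applied to cells in 96-well plates for 48 hours at 5 doses. GI50 = concentration required for 50% inhibition of growth.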 Calls of active or inactive are those of the source. Rule as the data show it: active = GI50 up to about 1.1 µM and inactive = higher.

Some test systems named below: KM12; NCI-H226; OVCAR-5; CAKI-1; UO-31; K562; OVCAR-4; HL-60; TK-10; COLO 205; RPMI-8226; SNB-19; 786-0; SNB-75; HCT-15; SW-620; UACC-257.
Assay in all cases: NCI anticancer screen, dose series, 48 h

With `COc1cc2c(c(OC)c1OC)-c1ccc(OC)c(=O)cc1[C@@H](N(C)C=O)CC2`, the GI50 is < 0.01 µM (active) in the experiment with KM12; 0.162 µM (active) in the experiment on NCI-H226; > 8.51 µM (inactive) in the experiment with OVCAR-5; 0.0304 µM (active) in the experiment on CAKI-1; 0.752 µM (active) with UO-31; 0.0128 µM (active) in the experiment on K562. In addition, the GI50 was 1.37 µM (inactive) with OVCAR-4; 0.0158 µM (active) in the experiment on HL-60; 1.45 µM (inactive) with TK-10; 0.0129 µM (active) with COLO 205; 0.0249 µM (active) with RPMI-8226; 0.0215 µM (active) in the experiment on SNB-19. The GI50 in the experiment with 786-0 was 0.0277 µM (active); in the experiment on SNB-75, < 0.01 µM (active); in the experiment on HCT-15, 0.0752 µM; in the experiment on SW-620, 0.0134 µM (active).

On to `COC(=O)/C([Se]c1c(C)cc(C)cc1C)=C(/[Se]c1c(C)cc(C)cc1C)C(=O)OC`, for which the GI50 with KM12, in the experiment with NCI-H226, in the experiment on OVCAR-5, in the experiment with CAKI-1, with UO-31 and with UACC-257 was > 100 µM (inactive) throughout. The GI50 is > 100 µM (inactive) in the experiment with K562; > 100 µM (inactive) with OVCAR-4; > 100 µM (inactive) in the experiment with HL-60; > 100 µM (inactive) in the experiment on TK-10; > 100 µM (inactive) with COLO 205; 76 µM (inactive) in the experiment on RPMI-8226. For the same molecule, the GI50 was > 100 µM (inactive) in the experiment on SNB-19; > 100 µM (inactive) in the experiment on 786-0; > 100 µM (inactive) with SNB-75; 81.3 µM in the experiment on HCT-15; > 100 µM (inactive) in the experiment on SW-620.

For `CC1(C(=O)O)CCOc2ccccc21` (configuration not stated), the GI50 in the experiment with NCI-H226, with OVCAR-5, in the experiment with CAKI-1, in the experiment with UO-31, with UACC-257 and in the experiment on K562 was > 100 µM (inactive) in each case. The GI50 with OVCAR-4, in the experiment on HL-60, in the experiment with TK-10, in the experiment on COLO 205, with RPMI-8226 and with SNB-19 was > 100 µM (inactive) throughout. Also, the GI50 in the experiment on 786-0 is > 100 µM (inactive); in the experiment on SNB-75, > 100 µM (inactive); in the experiment on HCT-15, over 100 µM; in the experiment with SW-620, > 100 µM (inactive).

In the case of `CSc1ccc(OCC2OC2O)cc1` (configuration not stated), the GI50 in the experiment with KM12 is 36.2 µM (inactive); with NCI-H226, 36.8 µM (inactive); in the experiment with OVCAR-5 it was > 94.6 µM (inactive); in the experiment with CAKI-1, > 50.9 µM (inactive); in the experiment with UO-31, 51.6 µM (inactive); with UACC-257 it was 41.2 µM (inactive). Further, the GI50 was 52.8 µM (inactive) in the experiment on K562; 30.8 µM (inactive) in the experiment with OVCAR-4; 27.3 µM (inactive) in the experiment on HL-60; > 50 µM (inactive) with TK-10; 16.5 µM (inactive) in the experiment with COLO 205; 30.8 µM (inactive) with RPMI-8226. The GI50 was > 92.5 µM (inactive) in the experiment on SNB-19; 66.4 µM (inactive) in the experiment on 786-0; > 65.6 µM (inactive) in the experiment with SNB-75; 23.5 µM in the experiment on HCT-15; 18.4 µM (inactive) in the experiment on SW-620.

With `CC(C)CCC[C@@H](C)[C@H]1CC[C@H]2[C@@H]3CC=C4CC(OCCCCN(O)CCCSC5OC(CO)C(O)C(O)C5O)CC[C@]4(C)[C@H]3CC[C@]12C` (some centres not stated), the GI50 was 33.5 µM (inactive) in the experiment with KM12; > 100 µM (inactive) in the experiment with OVCAR-5; > 100 µM (inactive) in the experiment with CAKI-1; > 100 µM (inactive) in the experiment on UO-31; > 100 µM (inactive) in the experiment on UACC-257; 36.3 µM (inactive) with K562. For the same molecule, the GI50 was > 100 µM (inactive) with OVCAR-4; 25.8 µM (inactive) with HL-60; > 100 µM (inactive) in the experiment with TK-10; 25.6 µM (inactive) with COLO 205; > 100 µM (inactive) in the experiment on RPMI-8226; > 100 µM (inactive) with SNB-19. Also, the GI50 was 18 µM (inactive) with 786-0, 65.8 µM (inactive) with SNB-75, 43.4 µM in the experiment on HCT-15 and 22.6 µM (inactive) in the experiment with SW-620.

As to `C=CCCC12CCCC(=O)C1Sc1ccc3ccccc3c12` (configuration not stated), the GI50 in the experiment with KM12 was 7.38 µM (inactive); with NCI-H226 it was 14.1 µM (inactive); in the experiment with OVCAR-5, 27.5 µM (inactive); with CAKI-1 it was 9.04 µM (inactive); with UO-31, 16.8 µM (inactive); in the experiment on UACC-257, 17.1 µM (inactive). The GI50 is 16.8 µM (inactive) in the experiment on K562; 28.6 µM (inactive) in the experiment with OVCAR-4; 7.08 µM (inactive) in the experiment with HL-60; 20.9 µM (inactive) in the experiment with TK-10; 12.9 µM (inactive) in the experiment with COLO 205; 12.9 µM (inactive) in the experiment with RPMI-8226. Besides, the GI50 in the experiment with SNB-19 was 24.4 µM (inactive); with 786-0, 17.9 µM (inactive); in the experiment with SNB-75, 22.8 µM (inactive); in the experiment with HCT-15, 11.1 µM; in the experiment with SW-620 it was 15.9 µM (inactive).

In the case of `Cl[Si]1(Cl)Oc2ccccc2O[Si](Cl)(Cl)Oc2ccccc2O1`, the GI50 in the experiment on KM12 was 34.3 µM (inactive); with NCI-H226, 38.5 µM (inactive); with OVCAR-5, 27.7 µM (inactive); with CAKI-1, 28.4 µM (inactive); in the experiment on K562, 15.3 µM (inactive); in the experiment with OVCAR-4, 11.8 µM (inactive). Further, the GI50 in the experiment with HL-60 was 1.25 µM (inactive); with TK-10, 46.1 µM (inactive); in the experiment on COLO 205, 13.8 µM (inactive); in the experiment with RPMI-8226, 9.18 µM (inactive); with SNB-19, 17.4 µM (inactive); in the experiment with 786-0 it was 8.45 µM (inactive). Besides, the results for the GI50 in the experiment with SNB-75, in the experiment on HCT-15 and in the experiment on SW-620 were 19.9 µM (inactive), 21 µM and 15 µM (inactive), respectively.

With `CC(=O)OCC1=C(CCC#N)N2C(=O)C(NC(=O)Cc3cccs3)C2[S+]([O-])C1` (configuration not stated), the GI50 in the experiment with KM12, in the experiment on NCI-H226, with OVCAR-5, with CAKI-1, with UO-31 and in the experiment on UACC-257 was > 100 µM (inactive) in each case. In addition, the GI50 in the experiment with K562, in the experiment on OVCAR-4, in the experiment on HL-60, with TK-10, in the experiment on COLO 205 and in the experiment on RPMI-8226 was > 100 µM (inactive) each time. The GI50 in the experiment on SNB-19 was > 100 µM (inactive); with 786-0 it was > 100 µM (inactive); in the experiment with SNB-75, > 100 µM (inactive); with HCT-15, over 100 µM; in the experiment on SW-620, > 100 µM (inactive).

As for `O=c1c2cc(Br)ccc2nc(CCl)n1-c1ccc(O)c([N+](=O)[O-])c1`, the GI50 in the experiment with KM12 is 19 µM (inactive); with NCI-H226, 14.5 µM (inactive); with OVCAR-5 it was 63.5 µM (inactive); in the experiment on CAKI-1 it was 21.7 µM (inactive); in the experiment on UO-31, 15.5 µM (inactive); in the experiment on UACC-257, 19.1 µM (inactive). Further, the GI50 with K562 is 22.4 µM (inactive); in the experiment on OVCAR-4, 18.7 µM (inactive); with HL-60 it was 23.2 µM (inactive); in the experiment on TK-10, 18.7 µM (inactive); with COLO 205, 20.3 µM (inactive); in the experiment on RPMI-8226, 25 µM (inactive). Also, the GI50 is 16.1 µM (inactive) in the experiment on 786-0, 20.8 µM (inactive) in the experiment on SNB-75, 19.7 µM with HCT-15 and 19.2 µM (inactive) in the experiment on SW-620.

Regarding `C/C=C(\C)c1cc(O)c(C)c2c1Oc1cc(O)c(Cl)c(C)c1C(=O)O2`, the GI50 in the experiment on KM12 was 20.9 µM (inactive); in the experiment with NCI-H226 it was 18.5 µM (inactive); in the experiment with OVCAR-5 it was 16.6 µM (inactive); in the experiment on CAKI-1, 27.4 µM (inactive); in the experiment with UO-31, 13.5 µM (inactive); in the experiment on UACC-257, 21.5 µM (inactive). For the same molecule, the GI50 with OVCAR-4 was 16.7 µM (inactive); in the experiment with HL-60 it was 36 µM (inactive); with TK-10 it was 16.2 µM (inactive); in the experiment with COLO 205, 25.3 µM (inactive); in the experiment with SNB-19, 17.3 µM (inactive); with 786-0 it was 25.6 µM (inactive). For the same molecule, the GI50 in the experiment on SNB-75 and in the experiment on SW-620 was 19.6 µM (inactive) throughout.

Regarding `CN(C)c1nc(N(C)c2ccccc2)[s+]s1`, the GI50 is 36.3 µM (inactive) in the experiment with KM12; 99.8 µM (inactive) with NCI-H226; > 100 µM (inactive) with OVCAR-5; > 100 µM (inactive) with CAKI-1; 99.1 µM (inactive) with UO-31; 54.2 µM (inactive) in the experiment on UACC-257. In addition, the GI50 with K562 was 35.1 µM (inactive); in the experiment on OVCAR-4, > 100 µM (inactive); in the experiment on HL-60, 15.7 µM (inactive); with TK-10 it was > 100 µM (inactive); in the experiment with SNB-19, > 100 µM (inactive); with 786-0, 51.5 µM (inactive). Moreover, the GI50 in the experiment on SNB-75 was 83.2 µM (inactive); with HCT-15 it was 54.3 µM; in the experiment on SW-620, > 100 µM (inactive).

On to `Cc1c(Cl)cccc1NC(=O)CC1C(=O)Nc2ccccc2S1(=O)=O` (configuration not stated), for which the GI50 with NCI-H226 was 16.9 µM (inactive); in the experiment with OVCAR-5, 20.6 µM (inactive); with CAKI-1, 19.9 µM (inactive); with UO-31, 17.1 µM (inactive); with UACC-257, 24 µM (inactive); with K562 it was 5.5 µM (inactive). Besides, the GI50 is 20.5 µM (inactive) in the experiment with OVCAR-4; 2.72 µM (inactive) in the experiment on HL-60; 25.8 µM (inactive) in the experiment with TK-10; 11.6 µM (inactive) with RPMI-8226; 33 µM (inactive) in the experiment with SNB-19; 17.3 µM (inactive) in the experiment with 786-0. The GI50 in the experiment on SNB-75 is 17.2 µM (inactive); with HCT-15, 10.3 µM; in the experiment with SW-620, 20 µM (inactive).

For the molecule `Cc1ccc([N+](=O)[O-])cc1NC(=O)C(=O)Cc1cc(=O)oc2cc(O)ccc12`, the GI50 with KM12, in the experiment on NCI-H226, in the experiment with OVCAR-5, in the experiment with CAKI-1, in the experiment on UO-31 and in the experiment with UACC-257 was > 100 µM (inactive) throughout. The GI50 in the experiment on K562 was 46.3 µM (inactive); in the experiment with OVCAR-4, > 100 µM (inactive); in the experiment on HL-60, > 100 µM (inactive); with TK-10 it was > 100 µM (inactive); with COLO 205, 42.8 µM (inactive); in the experiment on RPMI-8226, 32.1 µM (inactive). The GI50 in the experiment on SNB-19 was > 100 µM (inactive); with 786-0 it was > 100 µM (inactive); in the experiment with SNB-75, > 100 µM (inactive); in the experiment with HCT-15 it was over 100 µM.
